# Measurements from patent US9321804B2, “Synthesis and use of anti-tumor drug LQC-Y” (Beijing University of Chinese Medicine, priority 2011, dated 2016).
# Entries after “also recorded” stand apart in the source; their conditions may differ.
# Experiments:
# [1] = test system: small vessel growth of CAM model; test: Effect of LQC-Y on tumor angiogenesis using CAM method (small vessel count); type: in vivo, chicken; conditions: compared with the blank group
# Method: Aseptic gelatin sponge, which was made into a wafer having a diameter of 5 mm by a hole-puncher in advance, was used as sample carrier. The prepared derivatives of bromotetramethylpyrazine series were added thereinto in an aseptic environment and different dosage groups were set according to the difference of the molecular weight of each medicine, including 10 μg/chicken embryo, 20 μg/chicken embryo and 40 μg/chicken embryo. The 0.9% physiological saline was used in a blank group. The samples were air-dried in an aseptic environment.
# A hatching egg after disinfection was put into a 37° C. incubation box with air sac upward until the seventh day of incubation. The egg embryo was disinfected using alcohol at a super clean bench, and then a small hole was drilled at the top of the egg embryo using a dental drill, and the nearby egg shell and shell membrane were removed carefully to form a opening with the size of about 1.2 cm×1.2 cm. […]
# After the incubation, the transparent tape blocking the chicken embryo air sac was softly removed with a nipper. […] The effect of the compounds on angiogenesis was evaluated by the count analytic method using the numbers of great vessels, medium vessels and small vessels arranged radially around the carrier. […]
# [2] = test system: Human hepatoma carcinoma cells Bel7402; test: Proliferation of human hepatoma carcinoma cells Bel7402 by MTT; type: cell-based; conditions: for 24 h inhibition ratio (%): Bel7402 cells; for inhibiting effect on the proliferation of Bel7402 cells: cultured in vitro, 10-40 μg/ml
# Method: Human hepatoma carcinoma cells Bel7402 were recovered and subcultured using a culture flask. The preparation of the experiment was started when the cell growth entered into the exponential growth phase. The cells were then digested using pancreatic enzyme which had been filtrated at an increased pressure to prepare the cell suspension. After that the suspension was dyed for 3 min with 0.4% trypan blue. Then a blood cell counting plate was used to count the living cells which were not dyed and the dead cells which were dyed to blue. The number of the living cells identified by trypan blue was more than 98%.
# Three kinds of cells which were in the exponential growth phase were inoculated at the density of 1×10^4/ml, to a 96-well plate, 200 μl for each well. Then the plate was put in a 37° C. 5% CO2 incubation box to be cultured for 24 h. The cultivation liquid was sucked away and 200 μl LQC-Y solutions of different concentrations were added thereinto (prepared with DMEM cultivation liquid containing 4% calf serum and the final concentration of which respectively were 10 μg, 20 μg, 40 μg), 4 parallel wells for each concentration. Supernatant cultivation liquid 100 μl was sucked away carefully from each well after being cultured for 24 h and 48 h, and MTS 20 μl was added into each well and homogeneously mixed. The resultant liquid was cultured in a 37° C. 5% CO2 incubation box for a further 1 h. An enzyme-labeling quantitative instrument was used to measure the absorbance at 492 nm. The experiment was repeated for 3 times and then an inhibition ratio was calculated.
# The inhibition ratio of cell proliferation (%)=[(average OD value of control group-average OD value of the administration group)/average OD value of control group]×100%
# S180 sarcoma of mice = test: Tumor inhibiting effect of LQC-Y2 in tumor bearing S180 mice; conditions: for Tumor inhibiting ratio (%) / Tumor weight: S180 Balb/C mice, 15 days
# Method: The S180 mice that had been inoculated for 7 days were killed by breaking the neck thereof and ascites was taken from the mice respectively in an aseptic environment and the ascites was washed using RPMI1640 culture medium for 2 times and then made into a […] /ml cell suspension using aseptic physiological saline. Then the obtained S180 cell suspension was inoculated hypodermically at the right axillary of mice, 0.1 ml for each mouse and 50 mice total, to establish the solid tumor model.
# 60 mice were divided into 2 categories, including 6 groups, according to the random number table method, i.e. normal control group of the first category, and S180 solid tumor groups of the second category which included positive (cyclophosphamide) control group, negative control group, small dosage group, middle dosage group and large dosage group, 10 mice for each group. The experiment was repeated for 3 times.
# LQC-Y2 was made into an emulsion using corn oil. The dosage of the small dosage group was 75 mg/Kg, the dosage of the middle dosage group was 150 mg/Kg, and the dosage of the large dosage group was 300 mg/kg. Equal volume of corn oil was injected into the mice of the negative control group, cyclophosphamide injection 0.02 g/(Kg.d) was injected into the mice of the positive control group. These medicines were administrated 0.1 ml per mouse by intraperitoneal injection every the other day continuously for 15 days. During this period, the common behavior, hair and excrement and so on were observed daily. The mice that had been inoculated with S180 by hypodermic inoculation were killed by breaking the necks thereof after 24 h after the last administration and the tumor, liver and spleen were then taken.
# The weight of the solid tumor group mice were measured after all the administration was over and then the mice were killed. The spleens and the livers thereof were weighed by an electronic balance. The spleen index was calculated as the spleen weight of a mouse (mg)/the body weight of a mouse(g) and the liver index was calculated as the liver weight of a mouse[…]/the body weight of a mouse(g).
# The solid tumor negative control group mice were weighed on the next day after the administration was finished (the eyeballs of the mice were removed to bleed and the serum was collected for subsequent experimental use). Then the mice were killed by breaking the neck thereof. The tumor tissues were taken out and weighed by an electronic balance to calculate the tumor-inhibiting ratio.
# All the data were statistically analyzed using SPSS11.0 software pack. The comparison of the enumeration data was carried out with X^2 test. P<0.05 had statistical significance.
# [3] = test system: Human hepatoma carcinoma cells Bel7402; test: Proliferation of human hepatoma carcinoma cells Bel7402 by MTT; type: cell-based; conditions: 40 μg/ml
# [4] = large dosage 300 mg/kg i.p. every other day
# [5] = middle dosage 150 mg/Kg i.p. every other day
# [6] = small dosage 75 mg/Kg i.p. every other day
SMILES,vessel growth inhibiting effect [1],24 h inhibition ratio (%) ([2]; 10 μg/ml),24 h inhibition ratio (%) ([2]; 20 μg/ml),inhibiting effect on the proliferation of Bel7402 cells [2],effect on the growth of the sarcoma of S180 mice (S180 sarcoma of mice; 75-300 mg/kg i.p.),Tumor inhibiting ratio (%) (S180 sarcoma of mice; [4]),Tumor weight (S180 sarcoma of mice; [4]) [g],Tumor inhibiting ratio (%) (S180 sarcoma of mice; [5]),Tumor weight (S180 sarcoma of mice; [5]) [g],Tumor inhibiting ratio (%) (S180 sarcoma of mice; [6]),Tumor weight (S180 sarcoma of mice; [6]) [g],"effect on the growth of the S180 sarcoma mice's weight (S180 sarcoma of mice; mouse, in vivo)",24 h inhibition ratio (%) [3] [%]
"Cc1nc(C)c(COC(=O)CCC(C)C2CCC3C4CCC5CC(O)CCC5(C)C4CC(O)C23C)nc1C (stereo not drawn) [LQC-Y2, (3,5,6-trimethyl pyrazine-2-yl)methyl-4-(3,12-dihydroxy-10,13-dimethylhexadecahydro-1H-cyclopenta[a]phenanthren-17-yl)pentanoate]",significant inhibiting effect; also recorded: magnificent inhibiting effect,20.09,61.2,evident inhibiting effect,Some Effect on Inhibiting the Growth; also recorded: inhibit the growth of S180 tumor effectively,29.15,0.92 ± 0.49,35.88,0.84 ± 0.53,6.87,1.22 ± 0.62,no effect,66.98
"COc1cc(/C=C/C(=O)CC(=O)/C=C/c2ccc(OCc3nc(C)c(C)nc3C)c(OC)c2)ccc1OCc1nc(C)c(C)nc1C [LQC-Y8, (1E,6E)-1,7-bis(3-methoxy-4-((3,5,6-trimethylpyrazine-2-yl)methoxy)phenyl)heptyl-1,6-diene-3,5-diketone]",significant inhibiting effect; also recorded: magnificent inhibiting effect,39.31,44.58,evident inhibiting effect,–,–,–,–,–,–,–,–,54.07
